The results in this text go back to US7579012B2, “Targeting of triacylglycerol synthase gene for tuberculosis treatment” (University of Central Florida Research Foundation, Inc., priority 2005, dated 2009).

The target in this assay is T1, TGS1 (Mycobacterium tuberculosis, UniProt P9WKC9).
T1 construct: made in house; host or cells: E. coli (total cell lysate, not purified)
T1 sequence (P9WKC9 1-463): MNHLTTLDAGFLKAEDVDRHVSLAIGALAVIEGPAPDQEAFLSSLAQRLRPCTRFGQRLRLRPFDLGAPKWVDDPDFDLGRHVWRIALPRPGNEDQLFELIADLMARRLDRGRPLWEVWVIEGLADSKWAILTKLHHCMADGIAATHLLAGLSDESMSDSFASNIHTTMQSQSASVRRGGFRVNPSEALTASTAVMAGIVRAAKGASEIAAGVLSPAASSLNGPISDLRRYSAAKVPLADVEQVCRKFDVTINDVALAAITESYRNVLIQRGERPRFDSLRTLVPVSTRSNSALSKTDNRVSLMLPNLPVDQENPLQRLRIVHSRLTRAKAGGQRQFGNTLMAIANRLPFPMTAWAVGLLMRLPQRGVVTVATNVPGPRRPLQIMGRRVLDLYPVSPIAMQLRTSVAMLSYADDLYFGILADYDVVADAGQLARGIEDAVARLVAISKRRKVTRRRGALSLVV
Type of assay: biochemical, M. tuberculosis. The note with it: acyl-CoA substrate, pH 6.5, 37° C., 2 h; for Km: from linear double-reciprocal plots.

For `CCCCCCCC/C=C\CCCCCCCC(=O)SCCNC(=O)CCNC(=O)[C@H](O)C(C)(C)COP(=O)(O)OP(=O)(O)OC[C@H]1O[C@@H](n2cnc3c(N)ncnc32)[C@H](O)[C@@H]1OP(=O)(O)O` [C18:1-CoA, oleoyl (C18:1)-CoA], the Vmax is recorded as 1.1 nmol/mg/min and the Km came out at 540 µM.

On to `CCCCCCCCCCCCCCCCCCCCCCCCCC(=O)SCCNC(=O)CCNC(=O)[C@H](O)C(C)(C)COP(=O)(O)OP(=O)(O)OC[C@H]1O[C@@H](n2cnc3c(N)ncnc32)[C@H](O)[C@@H]1OP(=O)(O)O` [C26:0-CoA, hexacosanoyl (C26:0)-CoA], for which the Vmax turned out to be 2.4 nmol/mg/min and the Km worked out at 306 µM.

In general, Vmax refers to the top rate of the reaction or transport when substrate is in excess. One may read the Km as the concentration of substrate that gives half-maximal velocity.
